Reference: publication PMC5617738 (Toxicology Reports, 2016)
Converted amounts (≈) assume the structure as drawn. Read-outs that look alike come from different tables or passages of the source.

What was measured:
[1] = Solubility in test solution; assay type: physicochemical; settings: solution with a maximum of 1% DMSO
Plasmodium berghei = settings: P. berghei infected mice, cited from earlier work
murine macrophage cells = settings: cited from earlier work
PBMCs = settings: read-out: IC50 (toxicity on PBMCs); cited from earlier work
rodent = settings: cited from earlier work
HL-7702 = HL-7702 cells; cited from earlier work

Q: With `O=C1C(O)=C(Nc2ccccc2)C(=O)c2ccccc21` [4a, 2-hydroxy-3-anilino-1,4-naphthoquinone] as the compound, how does the Solubility [1] read?
A: Its Solubility is “soluble in the solution with a maximum of 1% DMSO”.

Q: And the “Parasitemia inhibition (%) Day 5” value (Plasmodium berghei; vs untreated control)?
A: The value was 53.3%.

Q: And the “Parasitemia inhibition (%) Day 7” value (Plasmodium berghei; vs untreated control)?
A: Its value is 18.5%.

Q: What about the “Mean Survival” value (Plasmodium berghei) of the same compound?
A: The value was 32.5 ± 6.6 days.

Q: What about the “Parasitemia Day 5” value (Plasmodium berghei; first Parasitemia column) of the same compound?
A: Its value is 0.7.

Q: And the “Parasitemia Day 5” value (Plasmodium berghei; second Parasitemia column, head printed Day 5)?
A: The value was 2.2.

Q: For `COc1cc(C=O)ccc1O` [vanillin], which IC50 (murine macrophage cells) is on record?
A: Its IC50 is 645 µg/mL (≈ 4.24 mM).

Q: With `Cc1cc(O)c2c(c1)C(=O)C(O)=CC2=O` [2,5-Dihydroxy-7-methyl-1,4-naphthoquinone] as the compound, how does the IC50 (PBMCs) read?
A: Its IC50 is 54 µM.

Q: Which IC50 (PBMCs) does the source give for `Cc1cc(O)c2c(c1)C(=O)C=CC2=O` [7-MJ, 5-Hydroxy-7-methyl-1,4-naphthoquinone] here?
A: The IC50 was 18.4 µM.

Q: Which results are given for `O=C1C=C(O)C(=O)c2ccccc21` [2-hydroxy-1,4-naphthoquinone]?
A: In vivo toxicity (rodent): highly toxic, causing both hemolytic anaemia and renal tubular necrosis; Relative cytotoxicity among six naphthoquinones (HL-7702): less toxic

Q: For `Cc1cc(O)c2c(c1F)C(=O)C=CC2=O` [8-Fluoro-5-hydroxy-7-methyl-1,4-naphthoquinone], which IC50 (PBMCs) is on record?
A: The IC50 was 189 µM.
